In patent US20250304537A1 (Repare Therapeutics Inc., priority 2022, published 2025):
Where two headings read alike, the source gives them in different places.

Columns and labels:
[1] = biological target: recombinant human Myt1 (full length PKMYT1) (Homo sapiens (Human), UniProt Q99640); test: Recombinant human Myt1 kinase assay (ADP-Glo); type: biochemical; conditions: 10 μM ATP
In short: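 ADP-Glo luminescence measured ATP hydrolysis by recombinant full-length PKMYT1 (18 nM) after 60 min at 30 °C with 10 μM ATP. Compounds in 0.5% DMSO were added to the enzyme 15 min before ATP, at 22 °C, in HEPES/MgCl2/MnCl2 buffer. IC50 and percent maximal inhibition were derived.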

[2] = system: PKMYT1 (CDK1 pThr14) in FUOV1 cells; test: PKMYT1 cell-based activity assay, CDK1 pThr14 AlphaLISA in FUOV1 cells; conditions: read-out: FUOV-1 CDK1 pThr14 IC50
In short: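 IC50 was derived from AlphaLISA signal (excitation 680 nm, emission 615 nm) for phospho-Thr14 CDK1 in lysates. The detection antibodies were rabbit anti-pThr14 and mouse anti-total CDK1, each at 5 nM. FUOV1 ovarian cells were exposed to compound for 2 hours before lysis.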

recombinant human Myt1 (full length PKMYT1), sequence (Q99640 whole entry): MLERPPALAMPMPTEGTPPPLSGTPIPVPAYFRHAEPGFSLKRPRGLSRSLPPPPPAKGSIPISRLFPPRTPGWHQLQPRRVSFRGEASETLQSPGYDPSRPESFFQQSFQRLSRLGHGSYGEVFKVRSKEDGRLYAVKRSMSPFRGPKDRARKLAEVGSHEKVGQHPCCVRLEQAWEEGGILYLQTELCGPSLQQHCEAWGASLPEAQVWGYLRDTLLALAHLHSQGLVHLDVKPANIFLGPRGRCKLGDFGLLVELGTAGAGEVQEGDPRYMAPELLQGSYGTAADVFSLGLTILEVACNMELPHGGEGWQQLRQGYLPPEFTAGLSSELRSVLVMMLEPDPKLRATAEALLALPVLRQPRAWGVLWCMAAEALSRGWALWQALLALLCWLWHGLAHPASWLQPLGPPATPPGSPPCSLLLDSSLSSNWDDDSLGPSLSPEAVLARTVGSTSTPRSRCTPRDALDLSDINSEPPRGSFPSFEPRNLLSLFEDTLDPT

Compound	IC50 [1] [nM]	IC50 ([2]; 2 h, 2 h compound incubation) [nM]	IC50 ([2]; 2 h, 2 h incubation) [nM]	IC50 ([2]; 2 h, 2 hours with compound) [nM]	IC50 ([2]; 2 h incubation) [nM]
Cc1ccc2[nH]ncc2c1-c1nc(-c2cccnc2N[C@@H]2CCO[C@H](C)C2)nc(C(N)=O)c1N [Compound 603]	4	25			
Cc1ccc2[nH]ncc2c1-c1nc(-c2cc(F)c(F)cc2NC(=O)C2(C#N)CC2)nc(C(N)=O)c1N [Compound 477]	3	26			
Cc1ccc(O)cc1-c1nc(-c2ccc(Cl)cc2)nc(C(N)=O)c1N [Compound 18]	28		3530		
Cc1ccc2[nH]ncc2c1-c1nc(-c2ccccc2NC(=O)C2(C#N)CC2)nc(C(N)=O)c1N [Compound 423]	4	23			
Cc1ccc2[nH]ncc2c1-c1cc(-c2cccc(F)n2)nc(C(N)=O)c1N [Compound 241]	10		1970		
Cc1ccc2[nH]ncc2c1-c1nc(-c2cccnc2Nc2nccn2C2CC2)nc(C(N)=O)c1N [Compound 902]	619			> 10000	
Cc1ccc2[nH]ncc2c1-c1nc(-c2ccccc2C(C)O)nc(C(N)=O)c1N (stereo not shown) [Compound 787]	4	278			
Cc1ccc2[nH]ncc2c1-c1nc(-c2ccccc2NC(=O)C2(C)CC(F)(F)C2)nc(C(N)=O)c1N [Compound 462]	4	137			
Cc1ccc(O)c(C)c1-c1cc(-c2cc(F)cc(F)c2)nc(C(N)=O)c1N [Compound 16, 3-amino-6-(3,5-difluorophenyl)-4-(3-hydroxy-2,6-dimethylphenyl)picolinamide]	5		575		
Cc1ccc2[nH]ncc2c1-c1cc(-c2ccnc(OCC(F)(F)F)n2)nc(C(N)=O)c1N [Compound 159]	6				268
Cc1ccc2[nH]ncc2c1-c1cc(-c2ccnnc2)nc(C(N)=O)c1N [Compound 95]	16		1700		
CCOC(=O)Nc1ccccc1-c1nc(C(N)=O)c(N)c(-c2c(C)ccc3[nH]ncc23)n1 [Compound 473]	8	48			
Cc1ccc2[nH]ncc2c1-c1nc(-c2cc(F)cnc2N[C@H]2CC[C@](O)(C(F)(F)F)CC2)nc(C(N)=O)c1N [Compound 835]	11			86	
Cc1ccc2[nH]ncc2c1-c1nc(-c2cccnc2NC(=O)C(C)(C)C)c(F)c(C(N)=O)c1N [Compound 905, 5-amino-3-fluoro-6-(5-methyl-1H-indazol-4-yl)-2′-pivalamido-[2,3′-bipyridine]-4-carboxamide]	< 3			> 10000	
Cc1ccc2[nH]ncc2c1-c1cc(-c2cccc(OCc3ccncn3)n2)nc(C(N)=O)c1N [Compound 244]	11		193		
Cc1ccc2[nH]ncc2c1-c1nc(-c2ccc(F)cc2Nc2ccnc(C#N)c2)nc(C(N)=O)c1N [Compound 620]	3	41			
Cc1ccc(O)c(C)c1-c1nc(-c2ccnnc2)cc(C(N)=O)c1N [Compound 88]	7				401
Cc1ccc(O)c(C)c1-c1cc(-c2cccc(=O)[nH]2)nc(C(N)=O)c1N [Compound 72]	10		77		
Cc1ccc2[nH]ncc2c1-c1cc(-c2ccnc(OC3CNC3)n2)nc(C(N)=O)c1N [Compound 194]	10		476		

Compound	IC50 [1] [nM]	IC50 ([2]; 2 h, 2 h compound incubation) [nM]	IC50 ([2]; 2 h, 2 h incubation) [nM]	IC50 ([2]; 2 h, 2 hours with compound) [nM]	IC50 ([2]; 2 h incubation) [nM]
Cc1ccc2[nH]ncc2c1-c1nc(-c2cccnc2N[C@H]2CCOCC2(C)C)nc(C(N)=O)c1N [Compound 830]	8			305	
Cc1nccc(Nc2cc(C#N)ccc2-c2nc(C(N)=O)c(N)c(-c3c(C)ccc4[nH]ncc34)n2)n1 [Compound 766]	3	41			
CC[C@H](COc1nccc(-c2cc(-c3c(C)ccc4[nH]ncc34)c(N)c(C(N)=O)n2)n1)OC (atropisomer, axis not shown) [Compound 333]	3		21		
Cc1ccc2[nH]ncc2c1-c1nc(-c2ccc(Cl)cc2NC(=O)C2(C)CC2)nc(C(N)=O)c1N [Compound 438]	4	17			
Cc1ccc2[nH]ncc2c1-c1nc(-c2ccccc2NC(=O)C(C)(C)F)nc(C(N)=O)c1N [Compound 434]	3	8			
Cc1ccc2[nH]ncc2c1-c1cc(-c2cccc(OCCN3CCCC3)n2)nc(C(N)=O)c1N [Compound 180]	10		99		
Cc1ccc2[nH]ncc2c1-c1cc(-c2cc(Cl)ccn2)nc(C(N)=O)c1N [Compound 257]	12		1170		
Cc1ccc(-c2nc(C(N)=O)c(N)c(-c3c(C)ccc4[nH]ncc34)n2)s1 [Compound 110]	23		883		
Cc1ccc2[nH]ncc2c1-c1nc(-c2ccc(S(C)(=O)=O)cc2NC2CCOCC2)nc(C(N)=O)c1N [Compound 831]	< 3			118	
Cc1ccc2[nH]ncc2c1-c1nc(-c2cc(F)c(F)cc2NC(=O)C2(C(F)(F)F)CCC2)nc(C(N)=O)c1N [Compound 470]	18	1230			
CC[C@@H](COc1nccc(-c2cc(-c3c(C)ccc4[nH]ncc34)c(N)c(C(N)=O)n2)n1)OC (atropisomer, axis not shown) [Compound 334]	400		1180		
Cc1ccc2[nH]ncc2c1-c1nc(-c2ccccc2NC(=O)C(C)(C)C(F)(F)F)nc(C(N)=O)c1N [Compound 402]	6	41			
Cc1ccc2[nH]ncc2c1-c1cc(-c2ccnc(S(C)(=O)=O)n2)nc(C(N)=O)c1N [Compound 168]	29		7590		
Cc1ccc2[nH]ncc2c1-c1nc(-c2cccnc2N[C@@H]2CCOCC2(C)C)nc(C(N)=O)c1N [Compound 829]	< 3			10	
Cc1ccc(O)c(C)c1-c1cc(-c2ncc(F)cc2F)nc(C(N)=O)c1N [Compound 39]	7		266		
Cc1ccc2[nH]ncc2c1-c1nc(-c2cccc(OCC#N)c2)nc(C(N)=O)c1N [Compound 288]	8		652		
Cc1ccc2[nH]ncc2c1-c1cc(-c2cccc(OCCN3CCNCC3)n2)nc(C(N)=O)c1N [Compound 183]	13		281		
Cc1ccc2[nH]ncc2c1-c1nc(-c2cccnc2NCCn2ccnc2C)nc(C(N)=O)c1N [Compound 884]	13			1610	
COC(COc1cccc(-c2cc(-c3c(C)ccc4[nH]ncc34)c(N)c(C(N)=O)n2)n1)C1CC1 (stereo not shown) [Compound 344]	7		983		

Compound	IC50 [1] [nM]	IC50 ([2]; 2 h, 2 h compound incubation) [nM]	IC50 ([2]; 2 h, 2 h incubation) [nM]	IC50 ([2]; 2 h, 2 hours with compound) [nM]	IC50 ([2]; 2 h incubation) [nM]
Cc1cccc(-c2nc(C(N)=O)c(N)c(-c3c(C)ccc4[nH]ncc34)n2)c1NC(=O)C1(C)CC1 [Compound 440]	13	523			
Cc1ccc2[nH]ncc2c1-c1nc(-c2cccnc2N[C@@H](c2cccnc2)C(F)F)nc(C(N)=O)c1N [Compound 937]	2			216	
COc1ccc(-c2nc(C(N)=O)c(N)c(-c3c(C)ccc4[nH]ncc34)n2)c(NC(=O)C2(C)CC2)c1 [Compound 455]	6	21			
Cc1ccc2[nH]ncc2c1-c1cc(-c2cccc(OCC3COC3)n2)nc(C(N)=O)c1N [Compound 268]	9		261		
Cc1ccc(O)c(C)c1-c1cc(-c2ccnnc2)nc(C(N)=O)c1N [Compound 52]	8		45		
Cc1ccc2[nH]ncc2c1-c1nc(-c2cccc(F)c2NCC(F)F)nc(C(N)=O)c1N [Compound 435]	4	136			
Cc1ccc2[nH]ncc2c1-c1nc(-c2cc(F)ccc2NS(=O)(=O)C2(C)CC2)nc(C(N)=O)c1N [Compound 482]	5	114			
Cc1ccc2[nH]ncc2c1-c1cc(-c2cccc(N[C@H](CO)c3ccccc3)n2)nc(C(N)=O)c1N [Compound 274]	3		136		
Cc1ccc(O)c(C)c1-c1cc(-c2ccns2)cc(C(N)=O)c1N [Compound 92]	5		131		
Cc1ccc2[nH]ncc2c1-c1nc(-c2ccccc2NC(=O)C(C)(C)C)nc(C(N)=O)c1N [Compound 377]	3		21		
Cc1ccc(-c2nc(C(N)=O)c(N)c(-c3c(C)ccc4[nH]ncc34)n2)c(Nc2nccnc2C)n1 [Compound 658]	5	8			
NC(=O)c1nc(-c2ccccc2)nc(-c2cccc3[nH]nc(F)c23)c1N [Compound 123]	99		> 10000		
Cc1ccc2[nH]ncc2c1-c1nc(-c2cc(F)cnc2NC2(C(F)(F)F)CC2)nc(C(N)=O)c1N [Compound 908]	< 3			95	
Cc1ccc(O)c(C)c1-c1cc(-c2nc3ccccc3o2)nc(C(N)=O)c1N [Compound 56]	7		373		
Cc1cccc(-c2cc(-c3c(C)ccc(O)c3C)c(N)c(C(N)=O)n2)n1 [Compound 91]	3				113
Cc1ccc(O)c(C)c1-c1cc(-c2nccs2)nc(C(N)=O)c1N [Compound 13, 3-amino-4-(3-hydroxy-2,6-dimethylphenyl)-6-(thiazol-2-yl)picolinamide]	< 3.5		64		
CO[C@H](COc1nccc(-c2cc(-c3c(C)ccc4[nH]ncc34)c(N)c(C(N)=O)n2)n1)c1ccccc1 (atropisomer, axis not shown) [Compound 309]	5		22		
CCNc1ccccc1-c1nc(C(N)=O)c(N)c(-c2c(C)ccc3[nH]ncc23)n1 [Compound 442]	4	33			
